Reference: patent US12559529B2, “NPY2 receptor agonists” (Boehringer Ingelheim International GmbH, priority 2019, dated 2026)
pKi: −log10 of the molar value. *1 amine or outer side, *2 acyl side, *3 side chain or, on linkers, in order; H or OH if unused. Where a SMILES comes first, the peptide text is derived from it. Side-chain parts run from the residue outwards. The star is where a group is joined. C18 diacid = O=C(O)CCCCCCCCCCCCCCCCC(=O)*; γGlu = O=C(O)[C@H](CCC(=O)[*:2])N[*:1]; Isovaleryl = CC(C)CC(=O)*; AEEA = NCCOCCOCC(=O)O

Target: T1, Human Neuropeptide Y2 Receptor (Homo sapiens, UniProt P49146)
T1 construct: purchased CHEMICON HTS066M
T1 sequence (P49146 1-381): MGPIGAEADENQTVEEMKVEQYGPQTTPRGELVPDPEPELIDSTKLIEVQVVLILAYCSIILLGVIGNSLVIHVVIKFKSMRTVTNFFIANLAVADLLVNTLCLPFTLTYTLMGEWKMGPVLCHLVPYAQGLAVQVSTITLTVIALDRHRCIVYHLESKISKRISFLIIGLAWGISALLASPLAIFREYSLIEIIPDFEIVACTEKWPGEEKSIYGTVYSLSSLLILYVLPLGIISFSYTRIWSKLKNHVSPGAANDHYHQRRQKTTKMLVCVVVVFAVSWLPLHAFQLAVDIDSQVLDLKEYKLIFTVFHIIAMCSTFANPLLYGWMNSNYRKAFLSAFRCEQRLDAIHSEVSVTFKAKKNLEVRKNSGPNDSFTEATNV
Assay: Radioligand binding competition assay (RLB)
Conditions: Table 3; human 125I-PYY (1-36) 0.02 nM, Y2 receptor membranes; read-out: Ki
How it was run: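 Filtration format; Y2R membrane prep 0.5 μg/well; buffer 50 mM HEPES/5 mM MgCl2/1 mM CaCl2/0.2% ovalbumin pH 7.4; 2 h RT, shaking. Harvest on PEI-soaked GF/C, ice-cold HEPES/500 mM NaCl washes, scintillation count. IC50 by nonlinear fit.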

Going from `CC(C)CC(=O)N[C@@H](C)C(=O)N1CCC[C@H]1C(=O)N[C@@H](CCC(=O)O)C(=O)N[C@@H](CCCCNC(=O)COCCOCCNC(=O)COCCOCCNC(=O)CC[C@H](NC(=O)CCCCCCCCCCCCCCCCC(=O)O)C(=O)O)C(=O)N1CCC[C@H]1C(=O)N[C@@H](CCC(=O)O)C(=O)N[C@@H](CCC(=O)O)C(=O)N[C@@H](C)C(=O)N[C@@H](C)C(=O)N[C@@H](CCC(=O)O)C(=O)N1CCC[C@H]1C(=O)N[C@@H](CCC(=O)O)C(=O)N[C@@H](CCC(=O)O)C(=O)N[C@@H](CC(C)C)C(=O)N[C@@H](CCC(N)=O)C(=O)N[C@@H](CCCNC(=N)N)C(=O)N[C@@H](Cc1ccc(O)cc1)C(=O)N[C@@H](Cc1ccc(O)cc1)C(=O)N[C@H](C(=O)N[C@@H](CO)C(=O)N[C@@H](CC(C)C)C(=O)N[C@@H](CCCNC(=N)N)C(=O)N[C@@H](Cc1c[nH]cn1)C(=O)N[C@@H](Cc1ccc(O)cc1)C(=O)N[C@@H](Cc1ccc(O)cc1)C(=O)N[C@@H](CC(N)=O)C(=O)N[C@@H](Cc1c[nH]c2ccccc12)C(=O)N[C@@H](CC(C)C)C(=O)N[C@H](C(=O)N[C@@H](CCCNC(=N)N)C(=O)N[C@@H](CCC(N)=O)C(=O)N[C@@H](CCCNC(=N)N)C(=O)N[C@@H](Cc1ccc(O)cc1)C(N)=O)[C@@H](C)O)C(C)C` [Compound 223, N{alpha-4}-(3-methylbutanoyl)-N{epsilon-7}-[2-(2-{2-[2-(2-{2-[(4S)-4-carboxy-4-(17-carboxyheptadecanamido)butanamido]ethoxy}ethoxy)acetamido]ethoxy}ethoxy)acetamido]-[4A,7K,9E,11A,13E,18Q,22V,28Y,30W,31L]hPYY (4-36)] to `CC(C)CC(=O)N[C@@H](C)C(=O)N1CCC[C@H]1C(=O)N[C@@H](CCC(=O)O)C(=O)N[C@@H](CCCCNC(=O)COCCOCCNC(=O)COCCOCCNC(=O)CC[C@H](NC(=O)CCCCCCCCCCCCCCCCC(=O)O)C(=O)O)C(=O)N1CCC[C@H]1C(=O)N[C@@H](CCC(=O)O)C(=O)N[C@@H](CCC(=O)O)C(=O)N[C@@H](C)C(=O)N[C@@H](C)C(=O)N[C@@H](CO)C(=O)N1CCC[C@H]1C(=O)N[C@@H](CCC(=O)O)C(=O)N[C@@H](CCC(=O)O)C(=O)N[C@H](C(=O)N[C@@H](CCC(N)=O)C(=O)N[C@@H](CCCNC(=N)N)C(=O)N[C@@H](Cc1ccc(O)cc1)C(=O)N[C@@H](Cc1ccc(O)cc1)C(=O)N[C@H](C(=O)N[C@@H](CO)C(=O)N[C@@H](CC(C)C)C(=O)N[C@@H](CCCNC(=N)N)C(=O)N[C@@H](Cc1c[nH]cn1)C(=O)N[C@@H](Cc1ccc(O)cc1)C(=O)N[C@@H](Cc1ccc(O)cc1)C(=O)N[C@@H](CC(N)=O)C(=O)N[C@@H](Cc1c[nH]c2ccccc12)C(=O)N[C@@H](CC(C)C)C(=O)N[C@H](C(=O)N[C@@H](CCCNC(=N)N)C(=O)N[C@@H](CCC(N)=O)C(=O)N[C@@H](CCCNC(=N)N)C(=O)N[C@@H](Cc1ccc(O)cc1)C(N)=O)[C@@H](C)O)C(C)C)[C@@H](C)O` [Compound 226, N{alpha-4}-(3-methylbutanoyl)-N{epsilon-7}-[2-(2-{2-[2-(2-{2-[(4S)-4-carboxy-4-(17-carboxyheptadecanamido)butanamido]ethoxy}ethoxy)acetamido]ethoxy}ethoxy)acetamido]-[4A,7K,9E,11A,17T,18Q,22V,28Y,30W,31L]hPYY (4-36)], the pKi rises from 8.32 to 8.92 (0.60 log units). The second binds more tightly here.

First: CC(C)CC(=O)N[C@@H](C)C(=O)N1CCC[C@H]1C(=O)N[C@@H](CCC(=O)O)C(=O)N[C@@H](CCCCNC(=O)COCCOCCNC(=O)COCCOCCNC(=O)CC[C@H](NC(=O)CCCCCCCCCCCCCCCCC(=O)O)C(=O)O)C(=O)N1CCC[C@H]1C(=O)NCC(=O)N[C@@H](CCC(=O)O)C(=O)N[C@@H](CCC(=O)O)C(=O)N[C@@H](C)C(=O)N[C@@H](CO)C(=O)N1CCC[C@H]1C(=O)N[C@@H](CCC(=O)O)C(=O)N[C@@H](CCC(=O)O)C(=O)N[C@@H](CC(C)C)C(=O)N[C@@H](CCC(=O)O)C(=O)N[C@@H](CCC(N)=O)C(=O)N[C@@H](Cc1ccc(O)cc1)C(=O)N[C@@H](Cc1ccc(O)cc1)C(=O)N[C@H](C(=O)N[C@@H](CO)C(=O)N[C@@H](CC(C)C)C(=O)N[C@@H](CCCNC(=N)N)C(=O)N[C@@H](Cc1c[nH]cn1)C(=O)N[C@@H](Cc1ccc(O)cc1)C(=O)N[C@@H](Cc1ccc(O)cc1)C(=O)N[C@@H](CC(N)=O)C(=O)N[C@@H](Cc1c[nH]c2ccccc12)C(=O)N[C@@H](CC(C)C)C(=O)N[C@H](C(=O)N[C@@H](CCCNC(=N)N)C(=O)N[C@@H](CCC(N)=O)C(=O)N[C@@H](CCCNC(=N)N)C(=O)N[C@@H](Cc1ccc(O)cc1)C(N)=O)[C@@H](C)O)C(C)C [Compound 224, N{alpha-4}-(3-methylbutanoyl)-N{epsilon-7}-[2-(2-{2-[2-(2-{2-[(4S)-4-carboxy-4-(17-carboxyheptadecanamido)butanamido]ethoxy}ethoxy)acetamido]ethoxy}ethoxy)acetamido]-[4A,7K,11E,18E,19Q,22V,28Y,30W,31L]hPYY (4-36)] (Isovaleryl-APEK([AEEA-AEEA-γGlu-C18 diacid])PGEEASPEELEQYYVSLRHYYNWLTRQRY-NH2)
Second: CC(C)CC(=O)N[C@@H](C)C(=O)N1CCC[C@H]1C(=O)N[C@@H](CCC(=O)O)C(=O)N[C@@H](CCCCNC(=O)COCCOCCNC(=O)COCCOCCNC(=O)CC[C@H](NC(=O)CCCCCCCCCCCCCCCCC(=O)O)C(=O)O)C(=O)N[C@@H](C)C(=O)N[C@@H](CCC(=O)O)C(=O)N[C@@H](CCC(=O)O)C(=O)N[C@@H](CC(=O)O)C(=O)N[C@@H](C)C(=O)N[C@@H](CO)C(=O)N1CCC[C@H]1C(=O)N[C@@H](CCC(=O)O)C(=O)N[C@@H](CCC(=O)O)C(=O)N[C@@H](CC(C)C)C(=O)N[C@@H](CCC(=O)O)C(=O)N[C@@H](CCC(N)=O)C(=O)N[C@@H](Cc1ccc(O)cc1)C(=O)N[C@@H](Cc1ccc(O)cc1)C(=O)N[C@H](C(=O)N[C@@H](CO)C(=O)N[C@@H](CC(C)C)C(=O)N[C@@H](CCCNC(=N)N)C(=O)N[C@@H](Cc1c[nH]cn1)C(=O)N[C@@H](Cc1ccc(O)cc1)C(=O)N[C@@H](Cc1ccc(O)cc1)C(=O)N[C@@H](CC(N)=O)C(=O)N[C@@H](Cc1c[nH]c2ccccc12)C(=O)N[C@@H](CC(C)C)C(=O)N[C@H](C(=O)N[C@@H](CCCNC(=N)N)C(=O)N[C@@H](CCC(N)=O)C(=O)N[C@@H](CCCNC(=N)N)C(=O)N[C@@H](Cc1ccc(O)cc1)C(N)=O)[C@@H](C)O)C(C)C [Compound 227, N{alpha-4}-(3-methylbutanoyl)-N{epsilon-7}-[2-(2-{2-[2-(2-{2-[(4S)-4-carboxy-4-(17-carboxyheptadecanamido)butanamido]ethoxy}ethoxy)acetamido]ethoxy}ethoxy)acetamido]-[4A,7K,8A,9E,18E,19Q,22V,28Y,30W,31L]hPYY (4-36)] (Isovaleryl-APEK([AEEA-AEEA-γGlu-C18 diacid])AEEDASPEELEQYYVSLRHYYNWLTRQRY-NH2)
The pKi of the first is 0.42 log units higher: 8.33 for the first, 7.91 for the second.
